Source: PMC12589998, “Development and validation of a UHPLC-QqQ-MS/MS method for simultaneous determination of fifteen major components from Oroxyli seed extract in rat plasma and its application in the pharmacokinetic study” (Frontiers in Pharmacology, 2025)

Assays:
[1] = Pharmacokinetic study in rats after oral administration of OS extract (UHPLC-QqQ-MS/MS of plasma); format: in vivo, rat; settings: for concentration at 0.5 h: SD, 3 g/kg, rat plasma collected 0.5 h after oral administration of the OS extract, read-out: Concentration printed in MRM chromatogram of plasma sample (Figure 2C); for Plasma levels: rat plasma after oral OS extract
Description: The UHPLC-QqQ-MS/MS system consisted of a 1290 UHPLC and a 6470 mass spectrometer (Agilent Technologies). Chromatographic separation was realized on utilizing an ACQUITY UPLC BEH C18 column (2.1 × 100 mm, 1.7 μm) maintained at 35 °C. The mobile phase consisting of 0.1% formic acid in water (A) and acetonitrile (B) was utilized with the elution program set at 0 min–1 min, 5% B–30% B; 1 min–4 min, 30% B– 50% B; 4 min–8 min, and 50% B–90% B. The injection volume was 5 μL, and the flow rate was 0.3 mL/min. The mass spectrometry parameters in the negative ion mode, gas temperature, flow rate, and nebulizer pressure were 300 °C, 7 L/min, and 35 psi, respectively. The mass spectra properties of the 15 analytes and the IS are illustrated in Table 1.
To 100 μL of the plasma sample, 20 μL of methanol, 20 μL of IS solution (methylparaben, 1 μg/mL), and 5 μL of formic acid were added and vortexed for a duration of 2 min. Subsequently, the mixture underwent extraction with 800 μL of acetonitrile for 3 min. Following 10 min of centrifugation at 12,000 g, the supernatant was collected and evaporated to dryness under N2 to obtain the residue. Finally, the residue was reconstituted in 50% methanol (100 μL) and utilized for analysis.
Before initiating the study, six male SD rats underwent a 12-h fasting period, during which they were granted unrestricted access to water. Then, the rats were administered an oral dose of 3 g/kg of the OS extract, which had been dissolved in 0.5% CMC-Na aqueous solution. Blood samples, approximately 200 μL each, were collected at various time points: before administration and at 0.03, 0.08, 0.17, 0.25, 0.5, 0.75, 1, 2, 4, 6, 8, 10, 12, 24, 36, and 48 h post-administration. Following 10 min of centrifugation at 6,000 g, the resultant samples were stored at −80 °C.
The developed method was effectively applied to study the pharmacokinetics in rats following oral administration of the OS extract. […] This was likely due to their low concentrations in the OS extract. Ultimately, nine components (chrysin, chrysin-7-O-β-D-glucuronide, baicalin, baicalein, oroxin A, oroxin B, oroxylin A, oroxylin A-7-O-β-D-glucuronide, and scutellarein) were successfully fitted with pharmacokinetic parameters. The average plasma concentration–time profiles of these substances are depicted in Figure 3. […] All data were presented as the mean ± standard deviation (Mean ± SD).

[2] = Stability of the analytes in rat plasma samples under storage conditions; format: physicochemical; settings: n = 6
Description: The bioanalytical method validation was evaluated for specificity, linearity, sensitivity, precision and accuracy, recovery, matrix effect, and stability to ensure compliance with the U.S. Food and Drug Administration (FDA) guidance on precise quantitative analysis ([Center for Drug Evaluation and Research of the U.S., 2018]). The assessment of specificity was conducted by comparing the chromatograms obtained from blank plasma, blank plasma spiked with the target components, and samples gathered following the oral administration of OS extract. Calibration curves were constructed by plotting the ratio for the peak area of the analyte to IS versus the concentration, with 1/x^2 serving as the weighting factor. The lower limit of quantification (LLOQ) was defined as the concentration at which a signal to noise ratio of […] 10 was achievable. The evaluation of precision and accuracy involved the analysis of six QC samples, both within a single day and over 3 consecutive days. Accuracy was expressed as the relative error (RE), whereas precision was gauged via relative standard deviation (RSD). Extraction recovery was ascertained by juxtaposing the responses of analytes in extracted samples against those in samples that were spiked post-extraction. The matrix effect was scrutinized by determining the ratio of the responses of the analytes in post-extraction spiked samples to those in the mixed standard solution. The stability of the analytes in plasma samples was explored under diverse conditions: encompassing a 12-h period in an autosampler, a 4-h interval at room temperature, three cycles of freezing–thawing, and a 7-day duration at −80 °C.
The retention times of the analyte peaks were consistent with those in the spiked samples. […] The LLOQs for chrysin, chrysin-7-O-β-D-glucuronide, hispidulin, wogonoside, quercetin, quercetin-7-O-β-D-glucoside, baicalin, baicalein, acacetin, oroxin A, oroxin B, oroxylin A, oroxylin A-7-O-β-D-glucuronide, apigenin, and scutellarein were 1.0, 2.0, 1.0, 0.3, 1.0, 0.1, 9.0, 6.0, 0.3, 6.0, 4.0, 1.0, 2.0, 0.5, and 0.3 ng/mL, respectively. In Supplementary Table S2, the RE for accuracy is between −13.77% and 12.55%, and the RSD for precision is below 14.55% (both intra- and inter-day). […] The matrix effect varied from 60.15% to 115.53%, with RSD values below 10.54%. In Supplementary Table S4, the RSD values for stability of the analytes are found to be lower than 13.98%, meaning that these components were stable under the following conditions: encompassing a 12-h period in an autosampler, a 4-h interval at room temperature, three cycles of freezing and thawing, and a 7-day duration at −80 °C.

Row | concentration at 0.5 h ([1]; male) [ng/mL] | Measured, -80°C for 7 days ([2]; spiked concentration 2 ng/mL) [ng/mL] | Measured, Autosampler for 12 h ([2]; spiked concentration 2 ng/mL) [ng/mL] | Measured, Room temperature for 4 h ([2]; spiked concentration 2 ng/mL) [ng/mL] | Measured, Three freeze-thaw cycles ([2]; spiked concentration 2 ng/mL) [ng/mL] | Measured, -80°C for 7 days ([2]; spiked concentration 20 ng/mL) [ng/mL] | Measured, Autosampler for 12 h ([2]; spiked concentration 20 ng/mL) [ng/mL] | Measured, Room temperature for 4 h ([2]; spiked concentration 20 ng/mL) [ng/mL] | Measured, Three freeze-thaw cycles ([2]; spiked concentration 20 ng/mL) [ng/mL] | Measured, -80°C for 7 days ([2]; spiked concentration 320 ng/mL) [ng/mL] | Measured, Autosampler for 12 h ([2]; spiked concentration 320 ng/mL) [ng/mL] | Measured, Room temperature for 4 h ([2]; spiked concentration 320 ng/mL) [ng/mL] | Measured, Three freeze-thaw cycles ([2]; spiked concentration 320 ng/mL) [ng/mL] | AUC(0-t) ([1]; male, rat plasma, oral 3 g/kg OS extract, n = 6, mean ± SD, read-out: AUC(0-t)) [ng·h/mL] | AUC(0-inf) ([1]; male, rat plasma, oral 3 g/kg OS extract, n = 6, mean ± SD, read-out: AUC(0-∞)) [ng·h/mL] | Cmax ([1]; male, rat plasma, oral 3 g/kg OS extract, n = 6, mean ± SD, read-out: Cmax) [ng/mL] | half-life ([1]; male, rat plasma, oral 3 g/kg OS extract, n = 6, mean ± SD, read-out: T1/2 (converted)) [h] | Tmax ([1]; male, rat plasma, oral 3 g/kg OS extract, n = 6, mean ± SD, read-out: Tmax) [min] | SMILES | Plasma levels [1]
1 | 14 | 1.77 ± 0.12 | 2.05 ± 0.22 | 1.84 ± 0.17 | 1.78 ± 0.13 | 19.80 ± 0.92 | 19.68 ± 1.68 | 18.12 ± 0.51 | 21.33 ± 0.83 | 296.10 ± 18.07 | 327.40 ± 16.47 | 316.24 ± 35.36 | 292.73 ± 17.80 | 89.4 ± 18.5 | 95.6 ± 17.5 | 47.8 ± 15.1 | 4.07 ± 1.61 | 6 ± 2.4 | O=c1cc(-c2ccc(O)cc2)oc2cc(O)c(O)c(O)c12 [Scutellarein, scutellarein] | –
2 | 11 | 1.78 ± 0.17 | 2.07 ± 0.26 | 1.82 ± 0.14 | 1.86 ± 0.09 | 22.33 ± 0.89 | 22.77 ± 1.13 | 19.87 ± 0.76 | 18.01 ± 1.31 | 287.53 ± 32.71 | 307.85 ± 37.80 | 327.84 ± 23.82 | 310.87 ± 20.44 | – | – | – | – | – | COc1c(O[C@@H]2O[C@H](C(=O)O)[C@@H](O)[C@H](O)[C@H]2O)cc(O)c2c(=O)cc(-c3ccccc3)oc12 [Wogonoside, wogonoside] | too weak to obtain comprehensive pharmacokinetic curves

Row | SMILES | concentration at 0.5 h ([1]; male) [ng/mL] | Measured, -80°C for 7 days ([2]; spiked concentration 2 ng/mL) [ng/mL] | Measured, Autosampler for 12 h ([2]; spiked concentration 2 ng/mL) [ng/mL] | Measured, Room temperature for 4 h ([2]; spiked concentration 2 ng/mL) [ng/mL] | Measured, Three freeze-thaw cycles ([2]; spiked concentration 2 ng/mL) [ng/mL] | Measured, -80°C for 7 days ([2]; spiked concentration 20 ng/mL) [ng/mL] | Measured, Autosampler for 12 h ([2]; spiked concentration 20 ng/mL) [ng/mL] | Measured, Room temperature for 4 h ([2]; spiked concentration 20 ng/mL) [ng/mL] | Measured, Three freeze-thaw cycles ([2]; spiked concentration 20 ng/mL) [ng/mL] | Measured, -80°C for 7 days ([2]; spiked concentration 320 ng/mL) [ng/mL] | Measured, Autosampler for 12 h ([2]; spiked concentration 320 ng/mL) [ng/mL] | Measured, Room temperature for 4 h ([2]; spiked concentration 320 ng/mL) [ng/mL] | Measured, Three freeze-thaw cycles ([2]; spiked concentration 320 ng/mL) [ng/mL] | AUC(0-t) ([1]; male, rat plasma, oral 3 g/kg OS extract, n = 6, mean ± SD, read-out: AUC(0-t)) [ng·h/mL] | AUC(0-inf) ([1]; male, rat plasma, oral 3 g/kg OS extract, n = 6, mean ± SD, read-out: AUC(0-∞)) [ng·h/mL] | Cmax ([1]; male, rat plasma, oral 3 g/kg OS extract, n = 6, mean ± SD, read-out: Cmax) [ng/mL] | half-life ([1]; male, rat plasma, oral 3 g/kg OS extract, n = 6, mean ± SD, read-out: T1/2 (converted)) [h] | Tmax ([1]; male, rat plasma, oral 3 g/kg OS extract, n = 6, mean ± SD, read-out: Tmax) [min] | Plasma levels [1]
3 | O=c1c(O)c(-c2ccc(O)c(O)c2)oc2cc(O[C@@H]3O[C@H](CO)[C@@H](O)[C@H](O)[C@H]3O)cc(O)c12 [Quercetin-7-O-β-D-glucoside, quercetin-7-O-β-D-glucoside] | 8 | 1.96 ± 0.23 | 2.10 ± 0.15 | 1.98 ± 0.24 | 2.03 ± 0.10 | 19.58 ± 0.68 | 19.79 ± 2.27 | 20.28 ± 1.69 | 17.78 ± 1.17 | 296.81 ± 20.76 | 320.27 ± 20.06 | 315.81 ± 25.77 | 326.98 ± 27.26 | – | – | – | – | – | too weak to obtain comprehensive pharmacokinetic curves
